In brackets after ≈: the same amount, converted by molar mass.
Experiments:
Candida albicans [1] = test: Antifungal activity against wild type Candida albicans; format: functional
[2] = target: T1, Phospho-N-acetylmuramoyl-pentapeptide-transferase (Escherichia coli, UniProt E2QF15); test: Inhibition of MraY in Escherichia coli
T1 sequence (E2QF15 whole entry): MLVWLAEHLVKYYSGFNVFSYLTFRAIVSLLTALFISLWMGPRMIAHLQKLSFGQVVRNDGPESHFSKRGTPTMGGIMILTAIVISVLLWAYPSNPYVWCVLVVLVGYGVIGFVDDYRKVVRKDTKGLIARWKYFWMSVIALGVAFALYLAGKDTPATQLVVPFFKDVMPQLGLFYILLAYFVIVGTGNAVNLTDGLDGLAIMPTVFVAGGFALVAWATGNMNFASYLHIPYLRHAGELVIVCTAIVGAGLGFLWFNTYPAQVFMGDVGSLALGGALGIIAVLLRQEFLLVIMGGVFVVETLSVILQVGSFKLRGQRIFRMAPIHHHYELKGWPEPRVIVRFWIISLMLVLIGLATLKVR

Pseudomonas aeruginosa [3] = test: Antimicrobial activity against Pseudomonas aeruginosa ATCC 15692 assessed as microbial inhibition; format: functional, organism-based
Enterococcus faecalis = test: Antimicrobial activity against Enterococcus faecalis ATCC 29212 assessed as microbial growth inhibition; format: functional, organism-based
Mycobacterium kansasii = test: Antimycobacterial activity against Mycobacterium kansasii ATCC12478 assessed as microbial growth reduction; format: functional
[4] = test system: Mycobacterium intracellulare; test: Antimycobacterial activity against Mycobacterium intracellulare ATCC1954 E-3 assessed as microbial growth reduction; format: functional
Mycobacterium avium [5] = test: Antimycobacterial activity against Mycobacterium avium ATCC 25291 assessed as reduction in microbial growth; format: functional
Staphylococcus aureus = test: Antimicrobial activity against methicillin-resistant Staphylococcus aureus 10925 assessed as reduction in microbial growth by broth microdilution method; format: functional
Enterococcus faecium = test: Antimicrobial activity against Enterococcus faecium ATCC 19434 assessed as reduction in microbial growth by broth microdilution method; format: functional
Streptococcus pyogenes = test: Antimicrobial activity against Streptococcus pyogenes ATCC 12344 assessed as reduction in microbial growth by broth microdilution method; format: functional
Candida albicans [6] = test: Antifungal activity against Candida albicans ATCC 10231 assessed as reduction in fungal growth incubated for 12 hrs by broth microdilution method; format: functional
Pseudomonas aeruginosa [7] = test: Antibacterial activity against Pseudomonas aeruginosa ATCC 27853 assessed as reduction in microbial growth by broth microdilution method; format: functional
[8] = test system: Mycobacterium tuberculosis; test: Antimycobacterial activity against Mycobacterium tuberculosis H37Rv assessed as reduction in bacterial growth; format: functional
Mycobacterium avium [9] = test: Antimycobacterial activity against Mycobacterium avium ATCC 25291 assessed as bacterial growth inhibition; format: functional
[10] = test system: Mycobacterium tuberculosis; test: Antimycobacterial activity against Mycobacterium tuberculosis K4 assessed as reduction in bacterial activity; format: functional
[11] = test system: Cutaneotrichosporon cutaneum; test: Antifungal activity against Trichosporon cutaneum 3071 assessed as reduction in microbial growth inhibition for 48 hrs by broth microdilution assay; format: functional
Candida albicans [12] = test: Antifungal activity against Candida albicans SC5314 assessed as reduction in microbial growth inhibition incubated for 48 hrs by broth microdilution assay; format: functional
Candida albicans [13] = test: […] activity against Candida albicans assessed as […] measured after 24 hrs by microtitre dilution method; format: functional
[14] = test system: Staphylococcus chromogenes; test: Antibacterial activity against wild type Staphylococcus chromogenes 7100 assessed as bacterial growth inhibition; format: functional
Candida albicans [15] = test: Antifungal activity against Candida albicans assessed as inhibition of fungal growth; format: functional
Candida albicans [16] = test: Antifungal activity against Candida albicans B-311 assessed as reduction fungal growth incubated for 16 hrs by microbroth dilution method; format: functional
[17] = Inhibition of Candida albicans SC5314 chitin synthase using UDP-GlcNAc as substrate incubated for 1 hr
Pseudomonas aeruginosa [18] = test: Antibacterial activity against Pseudomonas aeruginosa assessed as inhibition of bacterial growth incubated for 24 hrs by broth microdilution method; format: functional
Pseudomonas aeruginosa [19] = test: Antibacterial activity against Pseudomonas aeruginosa ATCC 15442 assessed as bacterial growth inhibition measured after 48 hrs by micro-broth dilution method; format: functional
[20] = test system: Mycolicibacterium smegmatis; test: Antibacterial activity against Mycobacterium smegmatis ATCC 607 assessed as bacterial growth inhibition; format: functional
[21] = target: Phospho-N-acetylmuramoyl-pentapeptide-transferase (Staphylococcus aureus, UniProt P0C1R8); test: Inhibition of Staphylococcus aureus MraY
Pseudomonas aeruginosa [22] = test: Antibacterial activity against beta-lactam resistant Pseudomonas aeruginosa assessed as bacterial growth inhibition; format: functional
Pseudomonas aeruginosa [23] = test: Antibacterial activity against Pseudomonas aeruginosa assessed as bacterial growth inhibition; format: functional

Phospho-N-acetylmuramoyl-pentapeptide-transferase (Staphylococcus aureus, UniProt P0C1R8), sequence (P0C1R8 whole entry): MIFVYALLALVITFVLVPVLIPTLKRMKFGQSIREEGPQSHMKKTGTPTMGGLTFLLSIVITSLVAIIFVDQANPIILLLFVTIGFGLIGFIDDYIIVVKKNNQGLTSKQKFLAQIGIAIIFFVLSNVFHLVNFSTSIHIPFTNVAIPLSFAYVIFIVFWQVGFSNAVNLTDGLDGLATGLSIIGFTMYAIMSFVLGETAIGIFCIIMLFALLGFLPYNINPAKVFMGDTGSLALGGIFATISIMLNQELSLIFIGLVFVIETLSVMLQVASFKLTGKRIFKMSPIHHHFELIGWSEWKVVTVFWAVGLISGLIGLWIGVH

Question: Which MIC (Candida albicans [1]) does the source give for `NC[C@H]1O[C@@H](O[C@@H](Cc2cn(CCCCCCCCCCc3ccccc3)nn2)[C@H]2O[C@@H](n3ccc(=O)[nH]c3=O)[C@H](O)[C@@H]2O)[C@H](O)[C@@H]1O` here?
Answer: 20 µg/mL (≈ 29.7 µM)

Question: And the IC50 [2]?
Answer: 8 µM

Question: What does the source list for `CCCC(C)CC(C)CC(C)/C=C(C)/C=C/C(O)C(C)C(=O)OC1C(O)CN2CC1NC[C@H]1O[C@@H](OC([C@H]3O[C@@H](n4ccc(=O)[nH]c4=O)[C@H](O)[C@@H]3OS(=O)(=O)O)C2C(=O)O)[C@H](O)[C@@H]1O` (stereo partly drawn)?
Answer: IC50 (Pseudomonas aeruginosa [3]): 0.065 µg/mL (≈ 0.0697 µM); IC50 (Enterococcus faecalis): 0.012 µg/mL (≈ 0.0129 µM)

Question: For `CO[C@H]1[C@@H](O)[C@H](n2ccc(=O)[nH]c2=O)O[C@@H]1[C@@H](O[C@@H]1OC(C(=O)Nc2ccc(F)c(F)c2)=C[C@@H](O)[C@H]1O)C(N)=O`, which MIC (Mycobacterium kansasii) is on record?
Answer: 0.5 µg/mL (≈ 0.876 µM)

Question: What about the MIC [4] of the same compound?
Answer: 0.5 µg/mL (≈ 0.876 µM)

Question: With `CCCCCCCCCC[C@H](CC(=O)O[C@H]1CN(C)[C@@H]([C@@H](O[C@@H]2O[C@H](CN)[C@@H](O)[C@H]2O)[C@H]2O[C@@H](n3ccc(=O)[nH]c3=O)[C@H](O)[C@@H]2O)C(=O)N(C)[C@@H]1C(=O)O)OC(=O)C[C@H](C)CC(=O)O` as the compound, how does the MIC (Mycobacterium avium [5]) read?
Answer: 1.2 µg/mL

Question: With `CCCCCCCCCCCCC[C@@H](CC(=O)O[C@H]1CN(C)[C@@H]([C@H](O[C@H]2O[C@@H](CN)[C@H](O)[C@@H]2O)[C@H]2O[C@@H](n3ccc(=O)[nH]c3=O)[C@H](OS(=O)(=O)O)[C@@H]2O)C(=O)N(C)[C@@H]1C(=O)O)OC(=O)C[C@H](C)CC(=O)O[C@@H]1O[C@@H](C)[C@H](OC)[C@@H](OC)[C@H]1OC` as the compound, how does the MIC (Staphylococcus aureus) read?
Answer: 4 µg/mL

Question: And the MIC (Enterococcus faecium)?
Answer: 4 µg/mL

Question: What about the MIC (Streptococcus pyogenes) of the same compound?
Answer: 4 µg/mL

Question: Which MIC (Candida albicans [6]) does the source give for `CC1(C)O[C@@H]2[C@H](O1)[C@@H](Cn1cc(COc3ccccc3)nn1)O[C@H]2n1ccc(=O)[nH]c1=O` here?
Answer: 8 µg/mL (≈ 18.1 µM)

Question: What does the source list for `CN(C[C@H](NC(=O)[C@H](CC[S+](C)[O-])NC(=O)N[C@@H](Cc1c[nH]c2ccccc12)C(=O)O)C(=O)N/C=C1/C[C@@H](O)[C@H](n2ccc(=O)[nH]c2=O)O1)C(=O)[C@@H](N)Cc1cccc(O)c1` (stereo partly drawn)?
Answer: MIC (Pseudomonas aeruginosa [7]): 8 µg/mL; MIC [8]: 8 µg/mL (≈ 9.24 µM)

Question: With `CN1C(=O)[C@H]([C@H](O[C@H]2O[C@@H](CN)[C@H](O)[C@@H]2O)[C@H]2O[C@@H](n3ccc(=O)[nH]c3=O)[C@H](O)[C@@H]2O)N(C)CC=C1C(=O)O` as the compound, how does the MIC (Mycobacterium avium [9]) read?
Answer: 0.05 µg/mL (≈ 0.0897 µM)

Question: With `CN1C[C@H](O)[C@@H](C(=O)O)N(C)C(=O)[C@@H]1[C@H](O[C@@H]1O[C@H](CN)[C@@H](O)[C@H]1O)[C@H]1O[C@@H](n2ccc(=O)[nH]c2=O)[C@H](O)[C@@H]1O` [CAPRAZOL] as the compound, how does the MIC [10] read?
Answer: 3.13 µg/mL (≈ 5.44 µM)

Question: Which MIC [11] does the source give for `C[C@@H]([C@H](N)C(=O)N[C@H](C(=O)O)[C@H]1OC(n2cc(C=O)nc2O)[C@H](O)[C@@H]1O)[C@H](O)c1ccc(O)cn1` (stereo partly drawn) [NIKKOMYCIN X] here?
Answer: 64 µg/mL

Question: What about the MIC (Candida albicans [12]) of the same compound?
Answer: 16 µg/mL

Question: What about the MIC (Candida albicans [13]) of the same compound?
Answer: 0.5 µg/mL (≈ 1.01 µM)

Question: What about the MIC [14] of the same compound?
Answer: 2 µg/mL (≈ 4.04 µM)

Question: And the MIC (Candida albicans [15])?
Answer: 2 µg/mL (≈ 4.04 µM)

Question: What about the MIC (Candida albicans [16]) of the same compound?
Answer: 2.5 µg/mL (≈ 5.05 µM)

Question: What about the IC50 [17] of the same compound?
Answer: 0.1 µg/mL (≈ 0.202 µM)

Question: With `C[C@H](NC(=O)N[C@@H](Cc1cccc(Cl)c1)C(=O)O)C(=O)N[C@H](C(=O)N/C=C1/C[C@@H](O)[C@H](n2ccc(=O)[nH]c2=O)O1)[C@H](C)NC(=O)[C@@H](N)Cc1ccc(O)cc1` as the compound, how does the MIC (Pseudomonas aeruginosa [18]) read?
Answer: 64 µg/mL (≈ 81.5 µM)

Question: With `C[C@H](N)C(=O)N(C)C[C@H](NC(=O)[C@H](C)NC(=O)N[C@@H](Cc1c[nH]c2ccccc12)C(=O)O)C(=O)NCC1C[C@@H](O)[C@H](n2ccc(=O)[nH]c2=O)O1` (stereo partly drawn) as the compound, how does the MIC (Pseudomonas aeruginosa [19]) read?
Answer: 64 µg/mL (≈ 91.5 µM)

Question: Which MIC [20] does the source give for `CO[C@H]1[C@@H](O)[C@H](n2ccc(=O)[nH]c2=O)O[C@@H]1[C@@H](O[C@@H]1OC(C(=O)N[C@H]2CCC[C@@H](C)NC2=O)=C[C@@H](O)[C@H]1O)C(N)=O` here?
Answer: 6.25 µg/mL (≈ 10.7 µM)

Question: What about the IC50 [21] of the same compound?
Answer: 0.017 µM

Question: For `CSCC[C@H](NC(=O)NC(Cc1cccc(O)c1)C(=O)O)C(=O)NC(CN(C)C(=O)[C@@H](N)C(Cc1cccc(O)c1)NCC(=O)O)C(=O)N/C=C1/C[C@@H](O)[C@H](n2ccc(=O)[nH]c2=O)O1` (stereo partly drawn), which MIC (Pseudomonas aeruginosa [22]) is on record?
Answer: 0.1 µg/mL (≈ 0.109 µM)

Question: What about the MIC (Pseudomonas aeruginosa [23]) of the same compound?
Answer: 1.5 µg/mL (≈ 1.64 µM)

From ChEMBL document CHEMBL5257035, “Nucleoside Derived Antibiotics to Fight Microbial Drug Resistance: New Utilities for an Established Class of Drugs?” (J Med Chem, 2016)
